Measurements taken from US6936270B2, “Device and method for treating conditions of a joint” (Control Delivery Systems, Inc., priority 2000, dated 2005).
Like-named read-outs stand apart in the source and are kept apart here.

Assays:
[1] = Fluocinolone acetonide concentration in dog synovial fluid after intraarticular implants in knee joints; format: in vivo, Canis familiaris; details: for concentration at 3 day / concentration at 7 day / concentration at 21 day / concentration at 29 day / concentration at 56 day: dog, other: bilateral intraarticular implants (knee joints)
Method: Devices were administered once via bilateral intraarticular implants. The day of surgical implantation was Day 1. The devices were made as follows. Fluocinolone acetonide, USP, was compressed into 1.5 mm diameter tablets using standard pharmaceutical methods. The tablets were placed into preformed cups made from silicone elastomer. Cup size was dependent on dosage form. These cups were attached to […] (PVA) suture tabs. For the 2 mg implants, the surface of the tablet not coated with silicone was attached to a suture tab with PVA solution. For the […] implant, a side of the silicone cup was attached perpendicular to the suture tab. Finally, the assemblies were dip coated with PVA. The implants were then cured at 135° C. for 5 hours and placed within the primary package. The product in the primary package was placed in a self-adhesive pouch and sterilized using gamma irradiation. Surgery was performed on both knee joints of all animals. A lateral skin incision was made to expose the fascia lata overlying the vastus lateralis cranially and the biceps fernoris caudally. The joint was exposed through an incision in the lateral intermuscular septum to expose the femur by anterior retraction of the vastus lateralis and posterior retraction of the biceps femoris. Care was taken not to disrupt the tendon of origin of the long digital extensor as it originates from the lateral femoral condyle. The joint capsule was opened, the patella luxated medially, and the joint was held in full flexion. 2 mg devices were placed in the right leg and 18 mg implants were placed in the left leg. The implants were placed within the anterior intercondyloid fossa, immediately lateral to the origin of the posterior cruciate ligament. The bone may be slightly deepened at this location with a curette to accept the implant. The implant was sutured in place to the posterior cruciate ligament. The joint capsule was closed with 3/0 PDS in a simple interrupted fashion. The retinaculum and intermuscular septum were closed with 2/0 Vicryl in a continuous pattern. The fascia lata were closed with 2/0 PDS, and the subcutaneous tissues with 3/0 PDS, both in a simple continuous pattern. The skin was closed with 3/0 Vicryl in a subcuticular pattern. After anesthesia (acepromazine, 0.2 mg/kg. IM followed by sodium pentobarbital, 22 mg/kg, IV, to effect), an attempt was made to obtain synovial fluid. Syriovial fluid samples were immediately stored at ≦−70° C. in polypropylene tubes until transferred.

[2] = Plasma concentration of fluocinolone acetonide after FA screw implant in the stifle joint of sheep; format: in vivo, Ovis aries (Sheep); details: intra-articular FA screw implants in the stifle joint, FIG. 1
Description: (§1) The objective of this study was to determine both the local and systemic pharmacokinetic profile of an intra-articular fluocinolone acetonide (FA screw) implant in the stifle joint of sheep. The animals underwent surgical implantation of the FA Screw test device in the stifle joint on Day 1. Following a recovery period, blood and synovial fluid were collected periodically for pharmacokinetic determination. Following completion of a 24 month observation period, the animals were euthanized and subjected to necropsy.
(§2) Devices were administered once via surgical implantation on Day 1.
(§3) The implant was a polymer-coated, sustained-release delivery system for Fluocinolone Acetonide (FA). The implant contained 55 mg of FA and was designed to deliver the drug for approximately 3 years. The tablet core contained approximately 55 mg of FA granulated with 10% PVA. The tablet core was positioned and adhered via an adhesive, such as a silicone adhesive, in the interchangeable head of the bone screw. The overall device geometry was that of a cancellous bone screw (i.e. the base) in which the head of the screw has been hollowed out to accept a removable cup (i.e. the payload) containing the drug tablet. In this embodiment, the screw was approximately 11/16″ in length and is no more than ¼″ at its widest point (i.e. the screw head), The payload was sized to fit into the screw and to accommodate the tablet. […]

[3] = Synovial fluid concentration of fluocinolone acetonide after FA screw implant in the stifle joint of sheep; format: in vivo, Ovis aries (Sheep); details: at three and eight weeks, FIG. 1
Description: as §1, §2, §3

Assayed Concentrations of Fluocinolone Acetonide in Dog Synovial Fluid Samples (Right Leg) ([1]; Right leg (2 mg devices), Dog 1001, Day 21): 7.27 ng/mL
Assayed Concentrations of Fluocinolone Acetonide in Dog Synovial Fluid Samples (Right Leg) ([1]; Right leg (2 mg devices), Dog 2001, Day 7): 98.4 ng/mL
Assayed Concentrations of Fluocinolone Acetonide in Dog Synovial Fluid Samples (Right Leg) ([1]; Right leg (2 mg devices), Dog 2002, Day 7): 47.7 ng/mL
Assayed Concentrations of Fluocinolone Acetonide in Dog Synovial Fluid Samples (Right Leg) ([1]; Right leg (2 mg devices), Dog 2002, Day 21): 144 ng/mL
Assayed Concentrations of Fluocinolone Acetonide in Dog Synovial Fluid Samples (Right Leg) ([1]; Right leg (2 mg devices), Dog 3001, Day 7): 171 ng/mL
Assayed Concentrations of Fluocinolone Acetonide in Dog Synovial Fluid Samples (Right Leg) ([1]; Right leg (2 mg devices), Dog 3001, Day 21): 51.5 ng/mL
Assayed Concentrations of Fluocinolone Acetonide in Dog Synovial Fluid Samples (Right Leg) ([1]; Right leg (2 mg devices), Dog 3002, Day 7): 8.30 ng/mL
concentration at 3 day ([1]; synovial fluid (left knee joint), 18 mg, Left leg (18 mg implants), Dog 1001, Day 3, read-out: Assayed Concentrations of Fluocinolone Acetonide in Dog Synovial Fluid Samples (Left Leg)): 656 ng/mL
concentration at 7 day ([1]; synovial fluid (left knee joint), 18 mg, Left leg (18 mg implants), Dog 1001, Day 7, read-out: Assayed Concentrations of Fluocinolone Acetonide in Dog Synovial Fluid Samples (Left Leg)): 290 ng/mL
concentration at 21 day ([1]; synovial fluid (left knee joint), 18 mg, Left leg (18 mg implants), Dog 1001, Day 21, read-out: Assayed Concentrations of Fluocinolone Acetonide in Dog Synovial Fluid Samples (Left Leg)): 1070 ng/mL
concentration at 29 day ([1]; synovial fluid (left knee joint), 18 mg, Left leg (18 mg implants), Dog 1001, Day 29, read-out: Assayed Concentrations of Fluocinolone Acetonide in Dog Synovial Fluid Samples (Left Leg)): 457 ng/mL
concentration at 56 day ([1]; synovial fluid (left knee joint), 18 mg, Left leg (18 mg implants), Dog 1001, Day 56, read-out: Assayed Concentrations of Fluocinolone Acetonide in Dog Synovial Fluid Samples (Left Leg)): 202000 ng/mL
concentration at 3 day ([1]; synovial fluid (left knee joint), 18 mg, Left leg (18 mg implants), Dog 1002, Day 3, read-out: Assayed Concentrations of Fluocinolone Acetonide in Dog Synovial Fluid Samples (Left Leg)): 357 ng/mL
concentration at 7 day ([1]; synovial fluid (left knee joint), 18 mg, Left leg (18 mg implants), Dog 1002, Day 7, read-out: Assayed Concentrations of Fluocinolone Acetonide in Dog Synovial Fluid Samples (Left Leg)): 405 ng/mL
concentration at 21 day ([1]; synovial fluid (left knee joint), 18 mg, Left leg (18 mg implants), Dog 1002, Day 21, read-out: Assayed Concentrations of Fluocinolone Acetonide in Dog Synovial Fluid Samples (Left Leg)): 373 ng/mL
concentration at 29 day ([1]; synovial fluid (left knee joint), 18 mg, Left leg (18 mg implants), Dog 1002, Day 29, read-out: Assayed Concentrations of Fluocinolone Acetonide in Dog Synovial Fluid Samples (Left Leg)): 379 ng/mL
concentration at 56 day ([1]; synovial fluid (left knee joint), 18 mg, Left leg (18 mg implants), Dog 1002, Day 56, read-out: Assayed Concentrations of Fluocinolone Acetonide in Dog Synovial Fluid Samples (Left Leg)): 541 ng/mL
concentration at 3 day ([1]; synovial fluid (left knee joint), 18 mg, Left leg (18 mg implants), Dog 2001, Day 3, read-out: Assayed Concentrations of Fluocinolone Acetonide in Dog Synovial Fluid Samples (Left Leg)): 89 ng/mL
concentration at 7 day ([1]; synovial fluid (left knee joint), 18 mg, Left leg (18 mg implants), Dog 2001, Day 7, read-out: Assayed Concentrations of Fluocinolone Acetonide in Dog Synovial Fluid Samples (Left Leg)): 194 ng/mL
concentration at 29 day ([1]; synovial fluid (left knee joint), 18 mg, Left leg (18 mg implants), Dog 2001, Day 29, read-out: Assayed Concentrations of Fluocinolone Acetonide in Dog Synovial Fluid Samples (Left Leg)): 57.8 ng/mL
concentration at 3 day ([1]; synovial fluid (left knee joint), 18 mg, Left leg (18 mg implants), Dog 2002, Day 3, read-out: Assayed Concentrations of Fluocinolone Acetonide in Dog Synovial Fluid Samples (Left Leg)): 193 ng/mL
concentration at 7 day ([1]; synovial fluid (left knee joint), 18 mg, Left leg (18 mg implants), Dog 2002, Day 7, read-out: Assayed Concentrations of Fluocinolone Acetonide in Dog Synovial Fluid Samples (Left Leg)): 279 ng/mL
concentration at 21 day ([1]; synovial fluid (left knee joint), 18 mg, Left leg (18 mg implants), Dog 2002, Day 21, read-out: Assayed Concentrations of Fluocinolone Acetonide in Dog Synovial Fluid Samples (Left Leg)): 393 ng/mL
concentration at 29 day ([1]; synovial fluid (left knee joint), 18 mg, Left leg (18 mg implants), Dog 2002, Day 29, read-out: Assayed Concentrations of Fluocinolone Acetonide in Dog Synovial Fluid Samples (Left Leg)): 956 ng/mL
concentration at 3 day ([1]; synovial fluid (left knee joint), 18 mg, Left leg (18 mg implants), Dog 3001, Day 3, read-out: Assayed Concentrations of Fluocinolone Acetonide in Dog Synovial Fluid Samples (Left Leg)): 788 ng/mL
concentration at 7 day ([1]; synovial fluid (left knee joint), 18 mg, Left leg (18 mg implants), Dog 3001, Day 7, read-out: Assayed Concentrations of Fluocinolone Acetonide in Dog Synovial Fluid Samples (Left Leg)): 35300 ng/mL
concentration at 21 day ([1]; synovial fluid (left knee joint), 18 mg, Left leg (18 mg implants), Dog 3001, Day 21, read-out: Assayed Concentrations of Fluocinolone Acetonide in Dog Synovial Fluid Samples (Left Leg)): 5180 ng/mL
concentration at 56 day ([1]; synovial fluid (left knee joint), 18 mg, Left leg (18 mg implants), Dog 3001, Day 56, read-out: Assayed Concentrations of Fluocinolone Acetonide in Dog Synovial Fluid Samples (Left Leg)): 36.9 ng/mL
concentration at 3 day ([1]; synovial fluid (left knee joint), 18 mg, Left leg (18 mg implants), Dog 3002, Day 3, read-out: Assayed Concentrations of Fluocinolone Acetonide in Dog Synovial Fluid Samples (Left Leg)): 207 ng/mL
concentration at 7 day ([1]; synovial fluid (left knee joint), 18 mg, Left leg (18 mg implants), Dog 3002, Day 7, read-out: Assayed Concentrations of Fluocinolone Acetonide in Dog Synovial Fluid Samples (Left Leg)): 251 ng/mL
concentration at 21 day ([1]; synovial fluid (left knee joint), 18 mg, Left leg (18 mg implants), Dog 3002, Day 21, read-out: Assayed Concentrations of Fluocinolone Acetonide in Dog Synovial Fluid Samples (Left Leg)): 276 ng/mL
concentration at 29 day ([1]; synovial fluid (left knee joint), 18 mg, Left leg (18 mg implants), Dog 3002, Day 29, read-out: Assayed Concentrations of Fluocinolone Acetonide in Dog Synovial Fluid Samples (Left Leg)): 210 ng/mL
concentration at 3 day ([1]; synovial fluid (right knee joint), 2 mg, Right leg (2 mg devices), Dog 1001, Day 3, read-out: Assayed Concentrations of Fluocinolone Acetonide in Dog Synovial Fluid Samples (Right Leg)): 52 ng/mL
concentration at 7 day ([1]; synovial fluid (right knee joint), 2 mg, Right leg (2 mg devices), Dog 1001, Day 7, read-out: Assayed Concentrations of Fluocinolone Acetonide in Dog Synovial Fluid Samples (Right Leg)): 62.4 ng/mL
concentration at 56 day ([1]; synovial fluid (right knee joint), 2 mg, Right leg (2 mg devices), Dog 1001, Day 56, read-out: Assayed Concentrations of Fluocinolone Acetonide in Dog Synovial Fluid Samples (Right Leg)): 19.3 ng/mL
concentration at 3 day ([1]; synovial fluid (right knee joint), 2 mg, Right leg (2 mg devices), Dog 1002, Day 3, read-out: Assayed Concentrations of Fluocinolone Acetonide in Dog Synovial Fluid Samples (Right Leg)): 36.6 ng/mL
concentration at 3 day ([1]; synovial fluid (right knee joint), 2 mg, Right leg (2 mg devices), Dog 2001, Day 3, read-out: Assayed Concentrations of Fluocinolone Acetonide in Dog Synovial Fluid Samples (Right Leg)): 600 ng/mL
concentration at 3 day ([1]; synovial fluid (right knee joint), 2 mg, Right leg (2 mg devices), Dog 2002, Day 3, read-out: Assayed Concentrations of Fluocinolone Acetonide in Dog Synovial Fluid Samples (Right Leg)): 24.4 ng/mL
concentration at 3 day ([1]; synovial fluid (right knee joint), 2 mg, Right leg (2 mg devices), Dog 3001, Day 3, read-out: Assayed Concentrations of Fluocinolone Acetonide in Dog Synovial Fluid Samples (Right Leg)): 57.9 ng/mL
concentration at 29 day ([1]; synovial fluid (right knee joint), 2 mg, Right leg (2 mg devices), Dog 3001, Day 29, read-out: Assayed Concentrations of Fluocinolone Acetonide in Dog Synovial Fluid Samples (Right Leg)): 16.4 ng/mL
concentration at 3 day ([1]; synovial fluid (right knee joint), 2 mg, Right leg (2 mg devices), Dog 3002, Day 3, read-out: Assayed Concentrations of Fluocinolone Acetonide in Dog Synovial Fluid Samples (Right Leg)): 40.7 ng/mL
concentration at 29 day ([1]; synovial fluid (right knee joint), 2 mg, Right leg (2 mg devices), Dog 3002, Day 29, read-out: Assayed Concentrations of Fluocinolone Acetonide in Dog Synovial Fluid Samples (Right Leg)): 7.86 ng/mL
Plasma levels [2]: 0 to 0.35 ng/mL
increase in FA concentrations in the synovial fluid [3]: three-fold increase
SMILES: CC1(C)O[C@@H]2C[C@H]3[C@@H]4C[C@H](F)C5=CC(=O)C=C[C@]5(C)[C@@]4(F)[C@@H](O)C[C@]3(C)[C@]2(C(=O)CO)O1 [Fluocinolone Acetonide]
